From patent US20100278907A1, “Immunogenic Compositions Containing Ceramide and Methods of Use Thereof” (Medical College of Georgia Research Institute, Inc, priority 2008, published 2010)
Where two headings read alike, the source gives them in different places.

How the values were obtained:
[1] = cited from earlier work
Aβ biogenesis = conditions: cited from earlier work
[2] = acid-induced acute lung injury; cited from earlier work
[3] = LPS model; cited from earlier work
[4] = system: ceramide levels in F11 cells; test: Immunocytochemistry for ceramide in treated F11 cells; assay type: cell-based
Method: (§1) For immunocytochemistry, F11 cells were grown on coverslips. Cells were incubated with myriocin for 3 days to inhibit de novo ceramide biosynthesis and reduce ceramide levels. To determine whether the antibody would cross-react with glycosphingolipids in the membrane, cells were incubated for 4 days with […] N-butyl-deoxynojirimycin (NB-dNJ), a glucosylceramide (GlcCer) synthase inhibitor known to inhibit glycosphingolipid biosynthesis. Control and myriocin- or NB-dNJ-treated cells were fixed with 4% p-formaldehyde in PBS for 20 min at room temperature. To release endogenous ceramide from sphingomyelin, fixed cells were incubated for 1 hour at 37° C. with 0.3 units (1 U/ml) of Staphylococcus aureus sphingomyelinase. Immunocytochemistry for ceramide was performed without the use of detergent for permeabilization. […] Confocal fluorescence microscopy was performed using a Zeiss LSM510 confocal laser scanning microscope equipped with a two photon argon laser at 488 nm (Cy2), 543 inn (Cy3), or 633 nm (Alexa Fluor: 647). […] Cells were washed with PBS, and stained cells were analyzed by flow cytometry, measuring the fluorescence emission at 530 nm. […]

[5] = system: TNF-α effect on endothelium-dependent vasorelaxation; conditions: cited from earlier work
[6] = repeated lung lavage; given together with surfactant; cited from earlier work
[7] = system: ceramide levels in F11 cells; test: Flow cytometry of F11 cells stained with anti-ceramide rabbit IgG; assay type: cell-based; conditions: F11 cells incubated with myriocin, stained with rabbit IgG fraction; FIG. 2
Method: as §1

[8] = system: ceramide levels in F11 cells; test: Ceramide levels by high-performance thin-layer chromatography; assay type: cell-based; conditions: myriocin incubation of F11 cells for 3 days; HPTLC

SMILES: CCCCCCCCCCCCC/C=C/[C@@H](O)[C@H](CO)NC(C)=O [C2-ceramide, N-acetyl sphingosine]
- ischaemic preconditioning-like protection ([1]; cell-permeable C2-ceramide compared with TNF-α preconditioning): TNF-a protection is reproduced

SMILES: CCCCCCCCCCCCC/C=C/[C@@H](O)[C@H](CO)NC(=O)CCCCC [C6 ceramide, N-hexanoylsphingosine]
- Aβ generation (Aβ biogenesis; FB1 treated cells): restored
- biogenesis of Aβ (Aβ biogenesis; exogenous C6 ceramide): promoted

SMILES: S=C(S)OC1CC2CC1C1CCCC21 (stereo not shown) [D609, tricyclodecan-9-yl-xanthate]
- oxygenation [2]: improves
- pulmonary edema [2]: attenuates
- mortality [3]: attenuated
- pulmonary edema formation [3]: attenuated
- protection from ischaemia-induced cell death ([1]; administered before the ischaemic period): reproduces preconditioning protection

SMILES: CCCCCCCC/C=C\CCCCCCCC(=O)NCCO [N-oleoylethanolamine]
- effect on preconditioning-like protection provided by TNF-a or C2-ceramide ([1]; ceramidase inhibitor): hinders
- effect on protection induced by ischaemic preconditioning ([1]; ceramidase inhibitor): does not hinder

SMILES: CCCCN1C[C@H](O)[C@@H](O)[C@H](O)[C@H]1CO [NB-dNJ, N-butyl-deoxynojirimycin]
- intensity of the ceramide immunostaining signal ([4]; F11 cells incubated for 4 days with 250 mM NB-dNJ): not changed significantly

SMILES: CNCCCN1c2ccccc2CCc2ccccc21 [desipramine]
- effect on TNF-α inhibition of endothelium-dependent vasorelaxation [5]: neutralizes

SMILES: CN(C)CCCN1c2ccccc2CCc2ccccc21 [imipramine]
- pulmonary inflammation [3]: attenuated
- duration of the beneficial effect [6]: 24 h
- edema formation [6]: ameliorates
- oxygenation [6]: advances

SMILES: CCCCCCC(=O)CCCCCC/C=C/C[C@@H](O)[C@H](O)[C@@](N)(CO)C(=O)O [myriocin]
- reduction of fluorescence intensity compared with control cells [7]: about 40%
- intensity of the ceramide immunostaining signal ([4]; F11 cells incubated with myriocin for 3 days, rabbit IgG and polyclonal IgM): reduced
- reduction of ceramide levels [8]: about 50%
